Structures can show the parent of a compound that is named as a salt. Where two headings read alike, the source gives them in different places.
Target: Nrf2-Keap1 complex (Homo sapiens, UniProt Q14145)
Assay: cell-based
Assay type: cell-based
Details: for activation at 16 µM / activation at 32 µM: 3 h; for activation at 16 µM: read-out: Activation 100 nL; for activation at 32 µM: read-out: Activation 200 nL
[1] = Table 2, 100 nL compound, screen run at 16 and 32 μM, 3 hr
[2] = Table 2, 200 nL compound, screen run at 16 and 32 μM, 3 hr
[3] = Table 1A, 100 nL compound, screen run at 16 and 32 μM, 3 hr
[4] = Table 1A, 200 nL compound, screen run at 16 and 32 μM, 3 hr

Sequence of Nrf2-Keap1 complex (Q14145 whole entry, one chain of several): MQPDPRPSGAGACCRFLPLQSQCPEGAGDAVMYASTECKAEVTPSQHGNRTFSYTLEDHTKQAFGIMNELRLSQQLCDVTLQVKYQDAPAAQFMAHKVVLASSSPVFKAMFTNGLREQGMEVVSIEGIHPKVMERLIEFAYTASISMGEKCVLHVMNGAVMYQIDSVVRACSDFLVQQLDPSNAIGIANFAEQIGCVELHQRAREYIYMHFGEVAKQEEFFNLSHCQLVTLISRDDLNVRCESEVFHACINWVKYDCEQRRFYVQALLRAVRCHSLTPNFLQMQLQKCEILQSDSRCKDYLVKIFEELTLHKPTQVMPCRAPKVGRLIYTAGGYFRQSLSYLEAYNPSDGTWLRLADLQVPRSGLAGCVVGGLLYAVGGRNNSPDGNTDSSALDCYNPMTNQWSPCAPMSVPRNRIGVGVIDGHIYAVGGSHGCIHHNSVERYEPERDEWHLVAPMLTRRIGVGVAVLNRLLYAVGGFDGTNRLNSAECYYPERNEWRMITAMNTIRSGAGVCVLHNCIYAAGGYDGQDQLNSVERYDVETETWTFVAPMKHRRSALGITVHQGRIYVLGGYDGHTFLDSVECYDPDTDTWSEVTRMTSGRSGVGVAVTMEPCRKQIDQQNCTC

Row | Compound | activation at 16 µM | activation at 32 µM | 100 nL (luminescence) [1] | 200 nL (luminescence) [2] | Activation 100 nL | Activation 200 nL | further results
1 | O=CC=Cc1ccc(O)cc1 [p-HYDROXYCINNAMALDEHYDE] | 63% | 122% | 1208 | 3256 | – | – | –
2 | O=c1c(O)c(-c2ccccc2)oc2cccc(O)c12 [3,5-DIHYDROXYFLAVONE] | 66% | -17% | 1484 | 24 | – | – | –
3 | CC(C)c1ccc2c(c1)CC[C@H]1[C@](C)(C(N)=O)CCC[C@]21C [DEHYDROABIETAMIDE] | 66% | 135% | – | – | – | – | –
4 | CC(=O)O[C@H]1CCC2(C)C3=C(CCC2C1(C)C)[C@@]1(C)CC[C@@H](C(C)CCC=C(C)C)[C@]1(C)CC3 (stereo partly shown) [EUPHOLACETATE] | – | – | 1710 | 2020 | 89% | 111% | –
5 | COc1cc(O)c(C(=O)c2ccccc2)cc1O [CEAROIN] | 53% | 111% | 1076 | 2988 | – | – | –
6 | CC(=O)Oc1cc2c(cc1OC(C)=O)[C@@H]1c3ccc(OC(C)=O)c(OC(C)=O)c3OC[C@]1(OC(C)=O)C2 [HAEMATOXYLINPENTAACETATE] | – | – | 1040 | 1304 | 50% | 37% | –
7 | COc1ccc(C(=O)c2ccccc2)c(O)c1O | – | – | 780 | 1212 | 47% | 37% | –
8 | CC(=O)OC1CCC23CC1(C)CCC2C(C)(C)CC3OC(C)=O (stereo not shown) [CLOVANEDIOLDIACETATE] | 27% | 40% | 728 | 1356 | – | – | –
9 | COc1ccc(C(=O)/C=C/c2ccccc2)cc1 [4′-METHOXYCHALCONE] | 134% | -15% | 2400 | 102 | – | – | –
10 | CN1CCc2cccc3c2[C@H]1Cc1ccc(O)c(O)c1-3 [APOMORPHINEHYDROCHLORIDE, reference compound] | 44% | -3% | 880 | 266 | – | – | –
11 | AMSACRINEHYDROCHLORIDE [reference compound] | – | – | – | – | 345% | 40% | 100 nL (luminescence): 3384; 200 nL (luminescence): 1264
12 | CC1=C2C(=CO[C@H](C)[C@H]2C)C(O)=C(C(=O)O)C1=O [CITRININ] | 219% | 217% | – | – | – | – | –
13 | O=C(/C=C/c1ccc(O)cc1)c1ccc(O)cc1O [ISOLIQUIRITIGENIN] | 268% | 134% | – | – | – | – | 100 nL (luminescence): 4452; 200 nL (luminescence): 2364
14 | C[C@]12C=CC(=O)C=C1CC[C@@H]1[C@@H]2[C@@H](O)C[C@@]2(C)[C@H]1CC[C@]2(O)C(=O)CO [PREDNISOLONE, reference compound] | 42% | 53% | – | – | – | – | 100 nL (luminescence): 864; 200 nL (luminescence): 1452
15 | CC(C)=CCC[C@@H](C)[C@@H]1CC[C@]2(C)C3=C(CC[C@@]12C)[C@@]1(C)CC[C@H](O)C(C)(C)[C@@H]1CC3 [EUPHOL] | 138% | 74% | 1572 | 2064 | – | – | –
16 | C=C[C@@](C)(O)CCC1C(=C)CCC2[C@@](C)(CO)CCC[C@]12C (stereo partly drawn) [EPI(13)TORULOSOL] | – | – | 724 | 448 | 27% | 0% | –

Row | Compound | activation at 16 µM | activation at 32 µM | 100 nL (luminescence) [1] | 200 nL (luminescence) [2] | Activation 100 nL | Activation 200 nL | further results
17 | Cc1cc(O)ccc1Cl [CHLOROCRESOL] | 25% | -5% | – | – | – | – | –
18 | C=C(C)[C@@H]1CC[C@]2(C(=O)O)CC[C@]3(C)[C@H](CC[C@@H]4[C@@]5(C)CC[C@H](O)C(C)(C)[C@@H]5CC[C@]43C)[C@@H]12 [BETULINICACID] | 54% | 85% | – | – | – | – | –
19 | CC(=O)O[C@@H]1C[C@H]2C(C)(C)[C@@H](O)CC[C@]2(C)[C@H]2CC[C@@]3(C)[C@H](c4ccoc4)OC(=O)[C@H]4O[C@]43[C@@]21C [beta-DIHYDROGEDUNOL] | – | – | 2270 | 3252 | 217% | 124% | Neh2-luc reporter activation: 220%
20 | CC(C)=CCCC1(C)C=Cc2c(O)c3c(c(CC=C(C)C)c2O1)OC12C(CC4CC1C(C)(C)OC2(C/C=C(/C)C(=O)O)C4O)C3=O (stereo not shown) [TETRAHYDROGAMBOGICACID] | – | – | 5480 | 2748 | 383% | 100% | –
21 | CC1(C)[N+]([O-])=[N+]([O-])C1(C)Br (stereo not shown) | – | – | 1308 | 1976 | 55% | 83% | –
22 | CC1=CC(=O)[C@H]2C(C)(C)CCC[C@]2(C)[C@@]1(O)CCc1ccoc1 [SOLIDAGENONE] | 121% | 77% | – | – | – | – | 100 nL (luminescence) [3]: 1976; 200 nL (luminescence) [4]: 2220
23 | COc1ccc(/C=C/C(=O)c2cc(O)ccc2O)cc1 [2′,5′-DIHYDROXY-4-METHOXYCHALCONE] | 322% | 20% | 3188 | 800 | – | – | –
24 | CCCCC(CC)CNC(=N)NC(=N)NCCCCCCNC(=N)NC(=N)NCC(CC)CCCC (stereo not shown) [ALEXIDINEHYDROCHLORIDE] | 101% | -18% | 1900 | 52 | – | – | –
25 | COC(=O)C1=C(C)NC(C)=C(C(=O)OC)C1c1ccccc1[N+](=O)[O-] [NIFEDIPINE, reference compound] | 35% | -10% | – | – | – | – | –
26 | Cc1cccc2c3c(ccc12)C1=C(C(=O)C3=O)[C@@H](C)CO1 [DIHYDROTANSHINONEI] | 158% | 5% | 2480 | 572 | – | – | –
27 | COC(=O)Nc1nc2ccc(Sc3ccccc3)cc2[nH]1 [FENBENDAZOLE, reference compound] | 224% | -24% | – | – | – | – | 100 nL (luminescence) [3]: 4908; 200 nL (luminescence) [4]: 92
28 | CCCCCCCCCCCCCCCc1ccco1 [AVOCADANOFURAN] | – | – | 880 | 1088 | 59% | 32% | –
29 | CC(=O)Oc1cc(-c2coc3cc(OC(C)=O)c(OC(C)=O)c(OC(C)=O)c3c2=O)cc(OC(C)=O)c1OC(C)=O [IRIGINOLHEXAACEATATE] | 65% | 58% | 1350 | 1208 | – | – | –
30 | Cc1c(O)c(O)cc2c1CC=C1[C@@]2(C)CC[C@@]2(C)[C@@H]3C[C@](C)(C(=O)O)CC[C@]3(C)CC[C@]12C [DIHYDROCELASTROL] | 62% | -16% | 1196 | 88 | – | – | hit strength in the screen (words): modest hit
31 | O=[N+]([O-])c1cccc2c(Br)n[nH]c12 [3-BROMO-7-NITROINDAZOLE] | 30% | 8% | – | – | – | – | hit strength in the screen (words): modest hits; 100 nL (luminescence) [3]: 632; 200 nL (luminescence) [4]: 512
32 | METHYL7-DESHYDROXYPYROGALLIN-4-CARBOXYLATE | – | – | 4444 | 3792 | 466% | 147% | –

From patent US9200046B2, “Reporter system for high throughput screening of compounds and uses thereof” (priority 2011, dated 2015)
